# According to patent US9783536B2, “Nitrogen-containing heterocyclic compound or salt thereof” (FUJIFILM Corporation, priority 2013, dated 2017):
# pIC50: −log10 of the molar value. Counter-ions that a name gives are not always drawn. Like-named read-outs stand apart in the source and are kept apart here.
# Legend:
# [1] = molecular target: T1, human PI3Kα protein (Homo sapiens, UniProt P42336); assay: PI3Kα enzyme assay (ADP-Glo); assay type: biochemical; settings: read-out: PI3Kα enzyme inhibitory activity
# T1 construct: purchased Carna Biosciences, Inc; host or cells: baculovirus expression system
# Procedure, shortened: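 Biotinylated human PI3Kα (baculovirus-expressed, 4.5 nmol/L) pre-incubated 15 min with compound in Tris-HCl pH 7.5, MgCl2, BSA; reaction 60 min at 25° C with 50 μmol/L PIP2 and 100 μmol/L ATP final. ADP quantified by ADP-Glo luminescence; IC50 calculated.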
# [2] = molecular target: T2, GST fusion human ERK2 protein (Homo sapiens, UniProt P28482); assay: ERK2 enzyme assay (2); assay type: biochemical; settings: read-out: ERK2 enzyme inhibitory activity (2)
# T2 construct: purchased Carna Biosciences, Inc; host or cells: E. coli expression system
# Procedure, shortened: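 GST-tagged human ERK2 expressed in E. coli (1.25 nmol/L) was preincubated with compound for 15 min at room temperature in pH 7.5 Hepes buffer with MgCl2, DTT and Brij35. Reaction with FL-Peptide 8 (final 4.25 μmol/L) and ATP (final 1 mmol/L) ran 120 min at 25 °C; EDTA stopped it, and phosphorylated peptide was quantified by mobility-shift separation to derive IC50.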
# T1 sequence (P42336 whole entry): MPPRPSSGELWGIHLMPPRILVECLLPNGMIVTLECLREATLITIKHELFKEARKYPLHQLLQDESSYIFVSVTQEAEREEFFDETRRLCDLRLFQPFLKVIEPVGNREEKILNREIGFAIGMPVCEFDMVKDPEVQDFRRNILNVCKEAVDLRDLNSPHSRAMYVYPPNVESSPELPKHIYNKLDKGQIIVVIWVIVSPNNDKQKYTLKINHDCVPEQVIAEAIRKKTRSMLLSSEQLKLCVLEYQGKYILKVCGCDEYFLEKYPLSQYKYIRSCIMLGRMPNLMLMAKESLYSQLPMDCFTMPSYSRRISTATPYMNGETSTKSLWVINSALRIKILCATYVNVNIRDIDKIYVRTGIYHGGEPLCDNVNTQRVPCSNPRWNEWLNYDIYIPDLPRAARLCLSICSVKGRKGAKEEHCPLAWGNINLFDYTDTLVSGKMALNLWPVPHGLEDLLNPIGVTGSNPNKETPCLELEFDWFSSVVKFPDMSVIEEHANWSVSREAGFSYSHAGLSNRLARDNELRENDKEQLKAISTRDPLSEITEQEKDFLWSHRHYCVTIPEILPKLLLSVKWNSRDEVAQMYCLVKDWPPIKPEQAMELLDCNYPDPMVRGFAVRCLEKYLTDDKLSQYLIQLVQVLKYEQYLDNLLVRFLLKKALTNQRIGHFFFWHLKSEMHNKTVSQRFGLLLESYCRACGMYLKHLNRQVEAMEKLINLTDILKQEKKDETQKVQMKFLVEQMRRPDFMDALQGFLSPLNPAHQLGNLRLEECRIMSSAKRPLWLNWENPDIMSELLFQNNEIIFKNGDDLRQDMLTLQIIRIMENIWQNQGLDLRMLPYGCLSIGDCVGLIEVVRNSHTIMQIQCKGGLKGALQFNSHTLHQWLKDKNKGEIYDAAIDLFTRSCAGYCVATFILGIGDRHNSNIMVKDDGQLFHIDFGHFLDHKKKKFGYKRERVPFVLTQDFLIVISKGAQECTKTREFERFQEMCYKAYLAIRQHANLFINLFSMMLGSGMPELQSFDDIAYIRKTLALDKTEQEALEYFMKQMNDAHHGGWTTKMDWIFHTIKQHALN
# T1 sequence (P27986 whole entry partner): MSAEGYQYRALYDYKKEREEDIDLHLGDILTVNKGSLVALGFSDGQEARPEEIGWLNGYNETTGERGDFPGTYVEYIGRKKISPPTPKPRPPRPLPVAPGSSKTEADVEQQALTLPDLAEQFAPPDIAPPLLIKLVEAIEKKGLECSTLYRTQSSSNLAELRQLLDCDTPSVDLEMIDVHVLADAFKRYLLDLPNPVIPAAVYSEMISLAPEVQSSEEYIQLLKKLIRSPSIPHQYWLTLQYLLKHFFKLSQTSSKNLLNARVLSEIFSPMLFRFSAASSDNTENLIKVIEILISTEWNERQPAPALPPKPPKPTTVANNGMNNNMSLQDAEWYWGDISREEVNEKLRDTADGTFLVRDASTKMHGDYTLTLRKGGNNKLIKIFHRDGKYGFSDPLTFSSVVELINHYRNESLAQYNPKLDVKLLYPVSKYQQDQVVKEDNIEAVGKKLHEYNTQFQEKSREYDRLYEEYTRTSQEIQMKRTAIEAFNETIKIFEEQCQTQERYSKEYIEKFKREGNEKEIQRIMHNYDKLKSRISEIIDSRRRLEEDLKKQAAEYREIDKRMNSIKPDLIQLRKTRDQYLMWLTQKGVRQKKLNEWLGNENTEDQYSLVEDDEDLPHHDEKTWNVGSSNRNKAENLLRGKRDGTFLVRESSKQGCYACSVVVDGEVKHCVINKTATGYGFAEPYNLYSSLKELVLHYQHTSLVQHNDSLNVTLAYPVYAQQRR
# T2 sequence (P28482 whole entry, the tested form may be a part): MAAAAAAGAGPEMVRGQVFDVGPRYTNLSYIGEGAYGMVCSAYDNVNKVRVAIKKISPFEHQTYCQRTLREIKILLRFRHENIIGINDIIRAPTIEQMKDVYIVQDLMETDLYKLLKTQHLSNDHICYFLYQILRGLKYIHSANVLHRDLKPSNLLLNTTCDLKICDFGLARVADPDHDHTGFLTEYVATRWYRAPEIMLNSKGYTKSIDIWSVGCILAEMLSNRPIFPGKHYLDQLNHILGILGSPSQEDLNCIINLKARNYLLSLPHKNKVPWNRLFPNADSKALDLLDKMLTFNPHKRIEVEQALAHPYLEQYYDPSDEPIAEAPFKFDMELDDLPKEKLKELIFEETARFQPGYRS
Compound,pIC50 [1],pIC50 ([2]; ERK2 enzyme assay (2)),pIC50 [2]
"CC(C)c1cnnc(Nc2ccc3ncc(-c4cn(C)nc4COc4cccc(OCCN(C)C)c4)cc3n2)c1 [Example 0809, 7-(3-((3-(2-(dimethylamino)ethoxy)phenoxy)methyl)-1-methyl-1H-pyrazol-4-yl)-N-(5-isopropylpyridazin-3-yl)-1,5-naphthyridine-2-amine]",> 6.00,> 6.00,–
COCCOC1CN(c2nn(C)cc2-c2cnc3ccc(Nc4cc(C(C)C)cnn4)nc3c2)C1 [Example 0933],> 6.00,–,> 6.00
COc1ccc(-c2cnc3ccc(Nc4cc(C(C)C)cnn4)nc3c2)cn1 [Example 0590],5.00 to 6.00,> 6.00,–
"CC(C)c1cnnc(Nc2ccc3ncc(C4=CCN(C(=O)N(C)C)C4)cc3n2)c1 [Example 0907, 3-(6-((5-Isopropylpyridazin-3-yl)amino)-1,5-naphthyridin-3-yl)-N,N-dimethyl-2,5-dihydro-1H-pyrrole-1-carboxamide]",> 6.00,–,> 6.00
CC(C)c1cnnc(Nc2ccc3ncc(N4CCC(F)(F)CC4)cc3n2)c1 [Example 0858],5.00 to 6.00,> 6.00,–
Cc1ccc(S(=O)(=O)NC2CN(CCCn3cc(-c4cnc5ccc(Nc6cc(C(C)C)cnn6)nc5c4)cn3)C2)cc1 [Example 0701],> 6.00,> 6.00,–
CCC(CC)c1cnnc(Nc2ccc3ncc(-c4cnn(CCOC5CN(C(C)C)C5)c4)cc3n2)c1 [Example 0818],> 6.00,> 6.00,–
CC(C)OC1CN(c2cnc3ccc(Nc4cc(C(C)C)cnn4)nc3c2)C1 [Example 0863],5.00 to 6.00,> 6.00,–
COC1(C)CN(CCCn2cc(-c3cnc4ccc(Nc5cc(C(C)C)cnn5)nc4c3)c(C)n2)C1 [Example 0797],> 6.00,> 6.00,–
"COCCOc1cc(-c2nn(C)cc2-c2cnc3ccc(Nc4cc(C(C)C)cnn4)nc3c2)ccn1 [Example 0750, N-(5-isopropylpyridazin-3-yl)-7-(3-(2-(2-methoxyethoxyl)pyridin-4-yl)-1-methyl-1H-pyrazol-4-yl)-1,5-naphthyridine-2-amine]",> 6.00,> 6.00,–
"CC(=O)N1CC(OCCn2cc(-c3cnc4ccc(Nc5cc(C(C)C)cnn5)nc4c3)cn2)C1 [Example 0754, 1-(3-(2-(4-(6-((5-isopropylpyridazin-3-yl)amino)-1,5-naphthyridin-3-yl)-1H-pyrazol-1-yl)ethoxy)azetidin-1-yl)ethanone]",> 6.00,> 6.00,–
Cc1nn(C)cc1-c1cnc2ccc(Nc3cc(C4CC4)cnn3)nc2c1 [Example 0565],> 6.00,> 6.00,–
"CC(C)c1cnnc(Nc2ccc3ncc(NC(=O)CO)cc3n2)c1 [Example 0662, 2-hydroxy-N-(6-((5-isopropylpyridazin-3-yl)amino)-1,5-naphthyridin-3-yl)acetamide]",> 6.00,5.00 to 6.00,–
COCCN(CCOC)c1nn(C)cc1-c1cnc2ccc(Nc3cc(C(C)C)cnn3)nc2c1 [Example 0947],5.00 to 6.00,–,5.00 to 6.00
"CC(C)c1cnnc(Nc2ccc3ncc(/C=C/c4cccnc4)cc3n2)c1 [Example 0648, (E)-N-(5-isopropylpyridazin-3-yl)-7-(2-(pyridin-3-yl)vinyl)-1,5-naphthyridine-2-amine]",> 6.00,> 6.00,–
"CCOc1c(-c2cnn(C)c2)cnc2ccc(Nc3cc(C(C)C)cnn3)nc12 [Example 0951, 8-Ethoxy-N-(5-isopropylpyridazin-3-yl)-7-(1-methyl-1H-pyrazol-4-yl)-1,5-naphthyridine-2-amine]",> 6.00,–,> 6.00
CC(C)c1cnnc(Nc2ccc3ncc(N4CC5(CCO5)C4)cc3n2)c1 [Example 0856],5.00 to 6.00,> 6.00,–
"CC(C)c1cnnc(Nc2ccc3ncc(N4CCCC4)cc3n2)c1 [Example 0846, N-(5-isopropylpyridazin-3-yl)-7-(pyrrolidin-1-yl)-1,5-naphthyridine-2-amine]",5.00 to 6.00,> 6.00,–
CC(C)c1cnnc(Nc2ccc3ncc(-c4cnn(CCCN5CC(O)(CCO)C5)c4)cc3n2)c1 [Example 0702],> 6.00,> 6.00,–
CC(C)c1cnnc(Nc2ccc3ncc(-c4scnc4-c4cccnc4)cc3n2)c1 [Example 0578],> 6.00,> 6.00,–

Compound,pIC50 [1],pIC50 ([2]; ERK2 enzyme assay (2)),pIC50 [2]
"CC(C)c1cnnc(Nc2ccc3ncc(-c4cn(C)nc4CN4CCOCC4)cc3n2)c1 [Example 0942, N-(5-isopropylpyridazin-3-yl)-7-(1-methyl-3-(morpholinomethyl)-1H-pyrazol-4-yl)-1,5-naphthyridine-2-amine]",> 6.00,–,> 6.00
"Cc1nc2ccc(Nc3cc(C(C)C)cnn3)nc2cc1-c1cn(C)nc1C [Example 0851, 7-(1,3-Dimethyl-1H-pyrazol-4-yl)-N-(5-isopropylpyridazin-3-yl)-6-methyl-1,5-naphthyridine-2-amine]",5.00 to 6.00,> 6.00,–
"CC(=O)N(C)c1cnc2ccc(Nc3cc(C(C)C)cnn3)nc2c1 [Example 0628, N-(6-((5-isopropylpyridazin-3-yl)amino)-1,5-naphthyridin-3-yl)-N-methylacetamide]",4.30 to 5.00,> 6.00,–
"CC(C)c1cnnc(Nc2ccc3ncc(-n4cnc(CCN)c4)cc3n2)c1 [Example 0506, Hydrochloric acid salt of 7-(4-(2-aminoethyl)-1H-imidazol-1-yl)-N-(5-isopropylpyridazin-3-yl)-1,5-naphthyridine-2-amine]",5.00 to 6.00,> 6.00,–
"C=C(C)c1cnnc(Nc2ccc3ncc(-c4cnn(C)c4)cc3n2)c1 [Example 0787, 7-(1-Methyl-1H-pyrazol-4-yl)-N-(5-(prop-1-en-2-yl)pyridazin-3-yl)-1,5-naphthyridine-2-amine]",> 6.00,> 6.00,–
CC(C)c1cnnc(Nc2ccc3ncc(-c4cnn(CCCN5CCN(c6ccncc6)CC5)c4)cc3n2)c1 [Example 0445],> 6.00,> 6.00,–
"CC(C)c1cnnc(Nc2ccc3ncc(C4=CCNCC4)cc3n2)c1 [Example 0881, N-(5-isopropylpyridazin-3-yl)-7-(1,2,3,6-tetrahydropyridin-4-yl)-1,5-naphthyridine-2-amine]",5.00 to 6.00,> 6.00,–
COc1ccc(-c2nn(C)cc2-c2cnc3ccc(Nc4cc(C)cnn4)nc3c2)cn1 [Example 0458],> 6.00,4.30 to 5.00,–
"CC(C)c1cnnc(Nc2ccc3ncc(C(=O)O)cc3n2)c1 [Example 0639, 6-((5-isopropylpyridazin-3-yl)amino)-1,5-naphthyridine-3-carboxylic acid]",5.00 to 6.00,4.30 to 5.00,–
"CCc1cnnc(Nc2ccc3ncc(-c4cn(C)nc4-c4cccnc4)cc3n2)c1 [Example 0542, N-(5-ethylpyridazin-3-yl)-7-(1-methyl-3-(pyridin-3-yl)-1H-pyrazol-4-yl)-1,5-naphthyridine-2-amine]",> 6.00,> 6.00,–
CCCOC1CN(CCCn2cc(-c3cnc4ccc(Nc5cc(C(C)C)cnn5)nc4c3)cn2)C1 [Example 0706],> 6.00,> 6.00,–
"CNc1nn(C)cc1-c1cnc2ccc(Nc3cc(C(C)C)cnn3)nc2c1 [Example 0683, N-(5-isopropylpyridazin-3-yl)-7-(1-methyl-3-(methylamino)-1H-pyrazol-4-yl)-1,5-naphthyridine-2-amine hydrochloride]",> 6.00,> 6.00,–
"COc1ccc(Cn2cc(-c3cnc4ccc(Nc5cc(C(C)C)cnn5)nc4c3)cn2)cn1 [Example 0453, N-(5-isopropylpyridazin-3-yl)-7-(1-((6-methoxypyridin-3-yl)methyl)-1H-pyrazol-4-yl)-1,5-naphthyridine-2-amine]",> 6.00,> 6.00,–
CCC(CC)c1cnnc(Nc2ccc3ncc(-c4cn(C)nc4-c4ccncc4)cc3n2)c1 [Example 0770],> 6.00,> 6.00,–
"CC(C)c1cnnc(Nc2ccc3ncc(C4=CCN(C(=O)N(C)C)CC4)cc3n2)c1 [Example 0883, 4-(6-((5-Isopropylpyridazin-3-yl)amino)-1,5-naphthyridin-3-yl)-N,N-dimethyl-5,6-dihydropyridine-1(2H)-carboxamide]",> 6.00,> 6.00,–
"CC(C)c1cnnc(Nc2ccc3ncc(-c4cnn(CCCN5CCC(F)(F)CC5)c4)cc3n2)c1 [Example 0419, 7-(1-(3-(4,4-Difluoropiperidin-1-yl)propyl)-1H-pyrazol-4-yl)-N-(5-isopropylpyridazin-3-yl)-1,5-naphthyridine-2-amine]",> 6.00,> 6.00,–
"COCCOC1CN(CCCn2cc(-c3cnc4ccc(Nc5cc(C(C)C)cnn5)nc4c3)cn2)C1 [Example 0718, N-(5-isopropylpyridazin-3-yl)-7-(1-(3-(3-(2-methoxyethoxy)azetidin-1-yl)propyl)-1H-pyrazol-4-yl)-1,5-naphthyridine-2-amine]",> 6.00,> 6.00,–
CC(C)c1cnnc(Nc2ccc3ncc(-c4cn(C)nc4N(C)C4COC4)cc3n2)c1 [Example 0943],> 6.00,–,> 6.00
"CC(C)c1cnnc(Nc2ccc3ncc(-c4cn(C)nc4-c4ccc(N)nc4)cc3n2)c1 [Example 0461, 7-(3-(6-aminopyridin-3-yl)-1-methyl-1H-pyrazol-4-yl)-N-(5-isopropylpyridazin-3-yl)-1,5-naphthyridine-2-amine]",> 6.00,> 6.00,–
CC(C)c1cnnc(Nc2ccc3ncc(-c4cnn(CCOC5CN(C(C)C)C5)c4)cc3n2)c1 [Example 0742],> 6.00,> 6.00,–
